As a reminder, the IC50 is the concentration that inhibits the measured activity by half.

Some results are limits rather than exact numbers.

The subject of data set [1] is B16F10 murine melanoma cancer cell line. Briefly: Cytotoxicity, Trypan blue exclusion test, B16F10. In kind it is cell-based. As to conditions: for IC50: B16F10, 24 h, Trypan blue exclusion, mean ± SD of two independent experiments. The method, then: (§1) The synthesized compounds were assessed for their cytotoxic effects on three different cancer cell lines: the MCF-7 human breast cancer cell line (ATCC number: HTB-22), the HT-29 human colorectal adenocarcinoma cell line [HTB-38; American Type Culture Collection (ATCC), Manassas, VA, USA], and the B16F10 murine melanoma cancer cell line [CRL-6475; American Type Culture Collection (ATCC), Manassas, VA, USA], as well as the normal cell line mouse Embryonic Fibroblast-1 cell line (MEF-1; ATCC CRL-2214). The cell line was cultivated in high-glucose Dulbecco’s Modified Eagle Medium (DMEM) that is supplemented with L-glutamine, phenol red (Fuji Film Wako, Osaka, Japan), 10% fetal bovine serum (FBS; G.E. Healthcare, Chicago, IL, USA), and 1% penicillin/streptomycin (P/S) (Nacalai Tesque, Kyoto, Japan). Exponentially growing cells (1 × 10^5 cells/well) were seeded in a 24-well plate with sterile-filtered DMEM medium at 37 °C under 5% CO2 and incubated overnight. The cells were then treated with different concentrations of test compounds (5, 10, 50, and 100 µg/mL) and incubated for 24 h in a humidified atmosphere. After 24 h of incubation, viable cells were counted in each well using the Trypan blue exclusion test. All compounds were initially dissolved in DMSO, and the final concentration of DMSO was less than 1% in all of the considered concentrations of the applied compounds. The IC50 values from at least two independent experiments were compared with the control and expressed as the mean ± SD. The analysis of two groups was performed using the student t-test, and P-values < 0.05 were statistically significant.

In data set [2] the test system is mouse Embryonic Fibroblast-1 cell line (MEF-1). Briefly: Cytotoxicity, Trypan blue exclusion test, normal MEF cells. Type of data set: cell-based. Particulars: for IC50: normal cell line MEF, 24 h, Trypan blue exclusion, mean ± SD of two independent experiments. Here is the method:
as §1

Data set [3] has as its system HT-29 human colorectal adenocarcinoma cell line. The data set can be described thus: Cytotoxicity, Trypan blue exclusion test, HT-29. Type of data set: cell-based. Particulars: for IC50: HT-29, 24 h, Trypan blue exclusion, mean ± SD of two independent experiments. Here is the method: as §1
Data set [4] deals with MCF-7 human breast cancer cell line. Briefly: Cytotoxicity, Trypan blue exclusion test, MCF-7. Type of data set: cell-based. As to conditions: for IC50: MCF-7, 24 h, Trypan blue exclusion, mean ± SD of two independent experiments. The method, then: as §1
Data set [5] concerns HT-29 cell line. Briefly: Morphological changes of treated HT-29 cells. In kind it is cell-based, human. As to conditions: high concentrations (≥ 50 µg/ml), versus untreated cancer cells. From the text:
(§2) In comparison to the control (untreated cancer cells), the three cancer cell lines (MCF-7, HT-29, and B16F10) were investigated for morphological changes after being treated with the synthesized compounds 9–19.

The subject of data set [6] is B16F10 cell line. The data set can be described thus: Morphological changes of treated B16F10 cells. In kind it is cell-based, murine. Particulars: high concentrations (≥ 50 µg/ml), versus untreated cancer cells.
From the text: as §2

On to `Clc1ccc(Nc2c(-c3ccc4ccccc4c3)nc3ccccn23)cc1` [C00008], for which the IC50 in data set [1] and in data set [2] was above 200 µM throughout.
As for `FC(F)(F)c1ccc(-c2nc3ccccn3c2Nc2ccc(Cl)cc2)cc1` [C00011], the IC50 was 195 ± 15.3 µM in data set [1], 85.5 ± 18.8 µM in data set [3], 63.9 ± 2.33 µM in data set [2] and above 200 µM in data set [4].
Turning to `Cc1cccc(-c2nc3ccccn3c2Nc2ccc(Cl)cc2)c1` [Compound 14, N-(4-chlorophenyl)−2-(m-tolyl)imidazo[1,2-a]pyridin-3-amine], in data set [5], the “Morphological changes, HT-29” value is “shrinkage and lost their original form”. Also, the IC50 was 21.8 ± 0.81 µM in data set [1] (Mus musculus, B16-F10, 24 h); 44.45 ± 0.15 µM in data set [3] (Homo sapiens); above 200 µM in data set [2] (Mus musculus, MEF). The “Morphological changes, B16F10” value in data set [6] was “shrinkage and lost their original form”.
Consider `O=[N+]([O-])c1ccccc1-c1nc2ccccn2c1Nc1ccc(Cl)cc1` [Compound 12, N-(4-chlorophenyl)−2-(2-nitrophenyl)imidazo[1,2-a]pyridin-3-amine], for which the “Morphological changes, HT-29” value in data set [5] was “shrinkage and lost their original form”. In addition, the IC50 turned out to be 64.8 ± 15.8 µM in data set [1] (Mus musculus, B16-F10, 24 h); 4.15 ± 2.93 µM in data set [3] (Homo sapiens); 40.5 ± 4.34 µM in data set [2] (Mus musculus, MEF); 30.9 ± 14.4 µM in data set [4] (Homo sapiens, MCF7, 24 h). In addition, the “Morphological changes, B16F10” value in data set [6] was “shrinkage and lost their original form”. The “Cytotoxicity against normal cells relative to HT-29 (fold lower)” value in data set [2] (MEF IC50 versus HT-29 IC50) is recorded as “tenfold”.
For `COc1ccc(-c2nc3ccccn3c2Nc2ccc(Cl)cc2)cc1OCc1ccccc1` [C00002], the IC50 in data set [1] is above 200 µM; in data set [3], above 200 µM; in data set [2] it was 18.5 ± 0.33 µM; in data set [4] it was above 200 µM.
For the molecule `Clc1ccc(Nc2c(-c3c[nH]c4ccccc34)nc3ccccn23)cc1` [C00003], the IC50 in data set [1] came to 39.2 ± 1.84 µM; in data set [3], 18.3 ± 1.22 µM; in data set [2] it was 1.84 ± 0.83 µM; in data set [4] it was 20.47 ± 0.1 µM.
As to `Fc1ccc(-c2nc3ccccn3c2Nc2ccc(Cl)cc2)c(F)c1` [Compound 18, N-(4-chlorophenyl)−2-(2,4-difluorophenyl)imidazo[1,2-a]pyridin-3-amine], the half-inhibitory concentration (IC50) in data set [1] is below 15 µM; in data set [1] (Mus musculus, B16-F10, 24 h) it was 14.39 ± 0.04 µM; in data set [3] it was below 15 µM; in data set [3] (Homo sapiens) it was 10.1 ± 0.7 µM; in data set [2] (Mus musculus, MEF) it was 16.31 ± 0.08 µM; in data set [4] (Homo sapiens, MCF7, 24 h) it was 14.8 ± 0.2 µM. The IC50 in data set [4] is below 15 µM.
Molecule `Cc1cccc(-c2nc3ccccn3c2Nc2ccc(Cl)cc2)c1` [C00006] showed an IC50 in data set [4] of 195 ± 19.9 µM.
For the molecule `Clc1ccc(Nc2c(-c3ccco3)nc3ccccn23)cc1` [C00005], the half-maximal inhibitory concentration (IC50) in data set [1] amounted to 197 ± 14.4 µM; in data set [3] it was 48.3 ± 0.53 µM; in data set [2], 32.93 ± 0.09 µM; in data set [4], 66.5 ± 37.9 µM.
`COc1cccc(-c2nc3ccccn3c2Nc2ccc(Cl)cc2)c1OC` [Compound 15, N-(4-chlorophenyl)−2-(2,3-dimethoxyphenyl)imidazo[1,2-a]pyridin-3-amine]: the “Cytotoxicity against B16F10 (in words)” value in data set [1] is “ineffective”. Besides, the “Cytotoxicity against HT-29 (in words)” value in data set [3] is reported as “ineffective”. Moreover, the “Cytotoxicity against MCF-7 (in words)” value in data set [4] is “ineffective”.
Turning to `Fc1ccc(-c2nc3ccccn3c2Nc2ccc(Cl)cc2)c(F)c1` [C00010], the figures for the IC50 in data set [1], in data set [3] and in data set [2] were 14.39 ± 0.04 µM, 10.1 ± 0.7 µM and 16.31 ± 0.08 µM, respectively.
On to `Clc1ccc(Nc2c(-c3ccsc3)nc3ccccn23)cc1` [Compound 17, N-(4-chlorophenyl)−2-(thiophen-3-yl)imidazo[1,2-a]pyridin-3-amine], for which the “Cytotoxicity against B16F10 (in words)” value in data set [1] is listed as “ineffective”. Moreover, the “Cytotoxicity against HT-29 (in words)” value in data set [3] is given as “ineffective”. Also, in data set [4], the “Cytotoxicity against MCF-7 (in words)” value is reported as “ineffective”.
With `Clc1ccc(Nc2c(-c3c[nH]c4ccccc34)nc3ccccn23)cc1` [Compound 11, N-(4-chlorophenyl)−2-(1 H-indol-3-yl)imidazo[1,2-a]pyridin-3-amine], the half-inhibitory concentration (IC50) in data set [1] (Mus musculus, B16-F10, 24 h) is 39.2 ± 1.84 µM; in data set [3] (Homo sapiens), 18.3 ± 1.22 µM; in data set [2] (Mus musculus, MEF), 1.84 ± 0.83 µM; in data set [2], below 1.84 µM; in data set [4] (Homo sapiens, MCF7, 24 h), 20.47 ± 0.1 µM.
In the case of `Clc1ccc(Nc2c(-c3ccsc3)nc3ccccn23)cc1` [C00009], the IC50 in data set [1], in data set [3], in data set [2] and in data set [4] was above 200 µM throughout.
Turning to `COc1ccc(-c2nc3ccccn3c2Nc2ccc(Cl)cc2)c(OC)c1OC` [Compound 9, N-(4-chlorophenyl)−2-(2,3,4-trimethoxyphenyl)imidazo[1,2-a]pyridin-3-amine], the “Cytotoxicity against B16F10 (in words)” value in data set [1] was “ineffective”. The “Cytotoxicity against HT-29 (in words)” value in data set [3] is “ineffective”. In addition, the “Cytotoxicity against MCF-7 (in words)” value in data set [4] is on record as “ineffective”.
With `COc1ccc(-c2nc3ccccn3c2Nc2ccc(Cl)cc2)c(OC)c1OC` [C00001], the IC50 in data set [1], in data set [3], in data set [2] and in data set [4] was above 200 µM each time.
For `COc1cccc(-c2nc3ccccn3c2Nc2ccc(Cl)cc2)c1OC` [C00007], the IC50 in data set [1], in data set [3], in data set [2] and in data set [4] was above 200 µM in each case.
For `Clc1ccc(Nc2c(-c3ccc4ccccc4c3)nc3ccccn23)cc1` [Compound 16, N-(4-chlorophenyl)−2-(naphthalen-2-yl)imidazo[1,2-a]pyridin-3-amine], the “Cytotoxicity against B16F10 (in words)” value in data set [1] is “inactive”. For the same molecule, the IC50 in data set [3] (Homo sapiens) was found to be 93.08 ± 0.61 µM; in data set [4] (Homo sapiens, MCF7, 24 h), 84 ± 3.37 µM.
`CC(=O)O[C@H]1C(=O)[C@@]2(C)[C@H]([C@H](OC(=O)c3ccccc3)[C@]3(O)C[C@H](OC(=O)[C@H](O)[C@@H](NC(=O)c4ccccc4)c4ccccc4)C(C)=C1C3(C)C)[C@]1(OC(C)=O)CO[C@@H]1C[C@@H]2O` [Paclitaxel (Taxol), Paclitaxel, reference compound]: the IC50 in data set [1] (Mus musculus, B16-F10, 24 h) stood at 55.7 µM; in data set [3] (Homo sapiens), 0.0166 µM; in data set [2] (Mus musculus, MEF), 17.2 µM; in data set [4] (Homo sapiens, MCF7, 24 h), 0.00834 µM.
For `COc1ccc(-c2nc3ccccn3c2Nc2ccc(Cl)cc2)cc1OCc1ccccc1` [Compound 10, 2-(3-(Benzyloxy)−4-methoxyphenyl)-N-(4-chlorophenyl)imidazo[1,2-a]pyridin-3-amine], the “Cytotoxicity against B16F10 (in words)” value in data set [1] is “ineffective”. The “Cytotoxicity against HT-29 (in words)” value in data set [3] was “ineffective”. Moreover, the “Cytotoxicity against MCF-7 (in words)” value in data set [4] is “ineffective”.
Turning to `FC(F)(F)c1ccc(-c2nc3ccccn3c2Nc2ccc(Cl)cc2)cc1` [Compound 19, N-(4-chlorophenyl)−2-(4-(trifluoromethyl)phenyl)imidazo[1,2-a]pyridin-3-amine], the IC50 in data set [1] (Mus musculus, B16-F10, 24 h) was at least 200 µM; in data set [3] (Homo sapiens) it was 85.5 ± 18.8 µM; in data set [2] (Mus musculus, MEF) it was 63.9 ± 2.33 µM; in data set [4] (Homo sapiens, MCF7, 24 h), at least 200 µM.
For `Clc1ccc(Nc2c(-c3ccco3)nc3ccccn23)cc1` [Compound 13, N-(4-chlorophenyl)−2-(furan-2-yl)imidazo[1,2-a]pyridin-3-amine], the half-maximal inhibitory concentration (IC50) was above 45 µM in data set [3]; 48.3 ± 0.53 µM in data set [3] (Homo sapiens); 32.93 ± 0.09 µM in data set [2] (Mus musculus, MEF); 66.5 ± 37.9 µM in data set [4] (Homo sapiens, MCF7, 24 h); above 45 µM in data set [4].
